What is called GI50 is the concentration at which growth is held to half of that of the control. A low value points to more potent growth inhibition. The IC50 is the point on the concentration scale where inhibition reaches its midpoint. The low end stands for greater potency, the high end for weaker potency.

Drawing on patent US20230183243A1, “HETEROARYL DERIVATIVES AND PHARMACEUTICAL COMPOSITION COMPRISING SAME AS ACTIVE INGREDIENT” (VORONOI INC., priority 2019, published 2023), this text covers GI50 and IC50 for 17 molecules.

Experiment [1] relates to MDA-MB-231 cells. The experiment can be described thus: Inhibition of proliferation of triple-negative breast cancer cells, CellTiter-Glo. Type of experiment: cell-based. Conditions: Homo sapiens, 120 h; MDA-MB-231, cultured for 5 days. In short, it runs like this:
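MDA-MB-231 cells pre-cultured 24 h (5% CO2, 37 °C), then exposed to compound for 5 days at 12 three-fold dilutions, final 10 μM to 0.05 nM. Viability read by CellTiter-Glo luminescence after 10 min at 37 °C; growth inhibition calculated relative to untreated solvent-control cells.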
In general terms: Cellular ATP, detected with luciferase, serves as a proxy for viable cell number.

For experiment [2], the system named is SHP-77. The experiment can be described thus: Inhibition of proliferation of small cell lung cancer cells, CellTiter-Glo. The format is cell-based. The conditions noted are these: Homo sapiens, SHP77, 120 h; SHP-77, cultured for 5 days. The method, then:
Specifically, the following test was performed to evaluate the inhibitory activity of the compound according to the present invention against the cell proliferation in the SCLC cells.
To check an inhibitory ability of cell growth in one SCLC cell line, a test was performed as follows. Cells were seeded in 180 μL of a culture broth at a density of 2,000 to 3,000 cells/well in a white clear bottom 96-well plate (Corning) according to the growth ability of each cell, and then cultured for 24 hours under conditions of 5% CO2 and 37° C. Thereafter, the compound was prepared by diluting a 10 mM stock solution three-fold with 100% DMSO at a total of 12 concentrations so that a peak concentration of the compound was in a range of 10 mM to 0.05 μM, and the diluted compound was then diluted in each cell culture medium so that a final concentration of the compound was in a range of 100 μM to 0.5 nM. 20 μL of a diluted solution diluted with a medium was added to the cell solution in which cells were seeded in the 96-well plate on the previous day so that a final concentration of the diluted solution was in a range of 10 μM to 0.05 nM. Each of the cells was cultured for 5 days. To check cell viability, a mixture provided in aCellTiter-Glo® Luminescent Cell Viability Assay Kit (Promega) was added to each of the cultured cell media, and cultured for another 10 minutes under a condition of 37° C. Then, a degree of luminescence (fluorescence) was measured. A degree of inhibition of the cell growth according to the treatment concentration of each of the compounds was calculated based on the fluorescence of the solvent control cells which were not treated with the compound. In this case, the concentration of each of the compounds inhibiting 50% of the cell growth was determined to be a GI50 (nM) value, and calculated using Prism (Version 7.01; GraphPad) software.

Experiment [3] deals with T1, TTK (Homo sapiens, UniProt P33981).
T1 sequence (P33981 1-857): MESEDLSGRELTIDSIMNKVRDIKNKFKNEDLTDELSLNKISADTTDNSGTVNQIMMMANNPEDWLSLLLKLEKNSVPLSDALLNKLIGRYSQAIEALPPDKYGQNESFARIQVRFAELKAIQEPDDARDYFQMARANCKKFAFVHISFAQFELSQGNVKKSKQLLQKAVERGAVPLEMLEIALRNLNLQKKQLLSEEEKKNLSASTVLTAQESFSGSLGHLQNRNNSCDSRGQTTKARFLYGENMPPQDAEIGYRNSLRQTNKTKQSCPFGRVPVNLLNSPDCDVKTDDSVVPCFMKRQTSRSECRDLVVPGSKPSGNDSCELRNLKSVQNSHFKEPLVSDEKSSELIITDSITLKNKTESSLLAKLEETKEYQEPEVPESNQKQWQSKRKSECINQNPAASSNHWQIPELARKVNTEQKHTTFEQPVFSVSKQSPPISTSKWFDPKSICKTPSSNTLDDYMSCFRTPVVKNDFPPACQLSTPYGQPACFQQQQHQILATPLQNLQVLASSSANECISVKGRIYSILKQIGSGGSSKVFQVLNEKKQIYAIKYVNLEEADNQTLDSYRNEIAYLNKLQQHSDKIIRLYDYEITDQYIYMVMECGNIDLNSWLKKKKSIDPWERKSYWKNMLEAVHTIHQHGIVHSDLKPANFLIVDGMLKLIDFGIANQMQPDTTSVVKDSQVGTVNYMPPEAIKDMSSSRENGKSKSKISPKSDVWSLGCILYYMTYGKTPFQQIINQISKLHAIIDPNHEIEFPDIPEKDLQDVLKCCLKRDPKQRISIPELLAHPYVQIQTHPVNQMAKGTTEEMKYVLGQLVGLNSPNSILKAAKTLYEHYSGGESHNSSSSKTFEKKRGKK
The experiment can be described thus: TTK enzyme activity, ADP-Glo kinase assay. The format is biochemical. Conditions: purified human TTK, ATP 10 μM, 25° C., 2 hours. Details: purchased SignalChem T20-10G. Put shortly:
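ADP-Glo read-out; percent inhibition at each compound concentration was relative to the solvent-only control. The reactions contained 25 ng enzyme, 0.2 μg substrate and 10 μM ATP in 40 mM Tris-HCl pH 7.4 with 20 mM MgCl2, 0.5 mg/mL BSA and 50 μM DTT, and ran 2 h at 25 °C.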
On the technique in general: In ADP-Glo the light output rises with the ADP produced.

Molecules are shown by their SMILES. Bounds are passed on as bounds.

On to `COc1cc(Nc2nc(NC3CCOC(C)(C)C3)c3c(C#N)c[nH]c3n2)ccc1-c1ccnn1C` (stereo not drawn) [Example 162, 4-((2,2-dimethyltetrahydro-2H-pyran-4-yl)amino)-2-((3-methoxy-4-(1-methyl-1H-pyrazol-5-yl)phenyl)amino)-7H-pyrrolo[2,3-d] pyrimidine-5-carbonitrile], for which the GI50 in experiment [1] and in experiment [2] was below 100 nM each time. In addition, in experiment [3], the half-inhibitory concentration (IC50) is below 50 nM.

On to `Cn1cc(-c2ccc(Nc3nc(NC4CCCCCC4)c4c(C#N)c[nH]c4n3)c3c2OCCO3)cn1` [Example 150, 4-(cycloheptylamino)-2-((8-(1-methyl-1H-pyrazol-4-yl)-2,3-dihydrobenzo[b][1,4]dioxin-5-yl)amino)-7H-pyrrolo[2,3-d] pyrimidine-5-carbonitrile], for which the GI50 in experiment [1] and in experiment [2] was below 100 nM in each case. This molecule showed an IC50 in experiment [3] of 50 to 200 nM.

For `COCCNc1nc(Nc2ccc(-c3nncn3C)cc2OC)nc2[nH]cc(C#N)c12` [Example 95, 2-((2-methoxy-4-(4-methyl-4H-1,2,4-triazol-3-yl)phenyl)amino)-4-((2-methoxyethyl)amino)-7H-pyrrolo[2,3-d] pyrimidine-5-carbonitrile], the GI50 in experiment [1] is 100 to 1000 nM; in experiment [2], below 100 nM. In addition, in experiment [3], the IC50 was below 50 nM.

Regarding `N#Cc1c[nH]c2nc(Nc3ccc(N4CCCC4=O)c4c3OCCO4)nc(NC3C[C@H]4CC[C@@H]3C4)c12` (stereo partly drawn) [Example 148, 4-(((1R,4S)-bicyclo[2.2.1]heptan-2-yl)amino)-2-((8-(2-oxopyrrolidin-1-yl)-2,3-dihydrobenzo[b][1,4]dioxin-5-yl)amino)-7H-pyrrolo[2,3-d] pyrimidine-5-carbonitrile], the GI50 in experiment [1] and in experiment [2] was below 100 nM in each case. For the same molecule, the IC50 in experiment [3] was below 50 nM.

For `Cn1nccc1-c1ccc(Nc2nc(NC3C[C@H]4CC[C@@H]3C4)c3c(C#N)c[nH]c3n2)c2c1OCCO2` (stereo partly drawn) [Example 61, 4-(((1R,4S)-bicyclo[2.2.l]heptan-2-yl)amino)-2-((8-(1-methyl-1H-pyrazol-5-yl)-2,3-dihydrobenzo[b][1,4]dioxin-5-yl)amino)-7H-pyrrolo[2,3-d] pyrimidine-5-carbonitrile], the GI50 in experiment [1] and in experiment [2] was below 100 nM in each case. Besides, in experiment [3], the IC50 lay within 50 to 200 nM.

Regarding `Cn1nccc1-c1ccc(Nc2nc(NC3CCCC3)c3cc[nH]c3n2)c2c1OCCO2` [Example 114, N^4-cyclopentyl-N^2-(8-(1-methyl-1H-pyrazol-5-yl)-2,3-dihydrobenzo[b][1,4]dioxin-5-yl)-7H-pyrrolo[2,3-d] pyrimidine-2,4-diamine], the GI50 in experiment [1] and in experiment [2] was 100 to 1000 nM throughout. The molecule further showed a 50% inhibitory concentration (IC50) in experiment [3] below 50 nM.

Regarding `Cn1nccc1-c1ccc(Nc2nc(NCCS(C)(=O)=O)c3c(C#N)c[nH]c3n2)c2c1OCCO2` [Example 84, 2-((8-(1-methyl-1H-pyrazol-5-yl)-2,3-dihydrobenzo[b][1,4]dioxin-5-yl)amino)-4-((2-(methylsulfonyl)ethyl)amino)-7H-pyrrolo[2,3-d] pyrimidine-5-carbonitrile], the GI50 in experiment [1] and in experiment [2] was above 1000 nM in each case. The molecule further returned an IC50 in experiment [3] below 50 nM.

Turning to `N#Cc1c[nH]c2nc(Nc3ccc(N4CCCS4(=O)=O)c(F)c3)nc(NC3CCOCC3)c12` [Example 29], the GI50 in experiment [1] and in experiment [2] was 100 to 1000 nM throughout. In experiment [3], this molecule displayed an IC50 below 50 nM.

As for `N#Cc1c[nH]c2nc(Nc3ccc(N4CCCC4=O)c4c3OCCO4)nc(NC3CCCCCC3)c12` [Example 151, 4-(cycloheptylamino)-2-((8-(2-oxopyrrolidin-1-yl)-2,3-dihydrobenzo[b][1,4]dioxin-5-yl)amino)-7H-pyrrolo[2,3-d] pyrimidine-5-carbonitrile], the GI50 in experiment [1] and in experiment [2] was below 100 nM in each case. The IC50 in experiment [3] was below 50 nM.

For `COc1cc(-c2ccccc2)ccc1Nc1nc(NC2CCOCC2)c2c(C#N)c[nH]c2n1` [Example 134, 2-((3-methoxy-[1,1 biphenyl]-4-yl)amino)-4-((tetrahydro-2H-pyran-4-yl)amino)-7H-pyrrolo[2,3-d] pyrimidine-5-carbonitrile], the concentration for 50% growth inhibition (GI50) in experiment [1] and in experiment [2] was below 100 nM throughout. The half-maximal inhibitory concentration (IC50) in experiment [3] is below 50 nM.

For the molecule `N#Cc1c[nH]c2nc(Nc3ccc(N4CCCCS4(=O)=O)cc3)nc(NC3CCCC3)c12` [Example 156, 4-(cyclopentylamino)-2-((4-(1,1-dioxido-1,2-thiazinan-2-yl)phenyl)amino)-7H-pyrrolo[2,3-d] pyrimidine-5-carbonitrile], the concentration for 50% growth inhibition (GI50) in experiment [1] and in experiment [2] was below 100 nM throughout. Besides, in experiment [3], the IC50 was below 50 nM.

In the case of `COc1cc(-c2c(C)noc2C)ccc1Nc1nc(NC2CCOCC2)c2c(C(F)(F)F)c[nH]c2n1` [Example 131, N^2-(4-(3,5-dimethylisoxazol-4-yl)-2-methoxyphenyl)-N^4-(tetrahydro-2H-pyran-4-yl)-5-(trifluoromethyl)-7H-pyrrolo[2,3-d] pyrimidine-2,4-diamine], the GI50 in experiment [1] and in experiment [2] was below 100 nM throughout. For the same molecule, the IC50 in experiment [3] is 50 to 200 nM.

On to `COc1cc(-c2cnn(C)c2)c(F)cc1Nc1nc(NC2CCCCC2)c2c(C#N)c[nH]c2n1` [Example 126, 4-(cyclohexylamino)-2-((5-fluoro-2-methoxy-4-(1-methyl-1H-pyrazol-4-yl)phenyl)amino)-7H-pyrrolo[2,3-d] pyrimidine-5-carbonitrile], for which the GI50 in experiment [1] and in experiment [2] was above 1000 nM each time. This molecule also had an IC50 in experiment [3] below 50 nM.

In the case of `COc1cc(-c2c(C)noc2C)c(F)cc1Nc1nc(NC2CCCCC2)c2c(C#N)c[nH]c2n1` [Example 123, 4-(cyclohexylamino)-2-((4-(3,5-dimethylisoxazol-4-yl)-5-fluoro-2-methoxyphenyl)amino)-7H-pyrrolo[2,3-d] pyrimidine-5-carbonitrile], the GI50 in experiment [1] was above 1000 nM; in experiment [2] it was 100 to 1000 nM. The IC50 in experiment [3] lay in the range of 50 to 200 nM.

Turning to `COc1cc(-c2ccnn2C)ccc1Nc1nc(NC2COC2)c2c(C#N)c[nH]c2n1` [Example 161, 2-((2-methoxy-4-(1-methyl-1H-pyrazol-5-yl)phenyl)amino)-4-(oxetan-3-ylamino)-7H-pyrrolo[2,3-d] pyrimidine-5-carbonitrile], the GI50 in experiment [1] and in experiment [2] was above 1000 nM throughout.

For `Cn1nccc1-c1ccc(Nc2nc(NC3COC3)c3c(C#N)c[nH]c3n2)c2c1OCCO2` [Example 160, 2-((8-(1-methyl-1H-pyrazol-5-yl)-2,3-dihydrobenzo[b][1,4]dioxin-5-yl)amino)-4-(oxetan-3-ylamino)-7H-pyrrolo[2,3-d] pyrimidine-5-carbonitrile], the GI50 in experiment [1] and in experiment [2] was above 1000 nM throughout.

With `COc1cc(-c2ccc(F)nc2)ccc1Nc1nc(NC2CCCC2)c2c(C#N)c[nH]c2n1` [Example 42, 4-(cyclopentylamino)-2-((4-(6-fluoropyridin-3-yl)-2-methoxyphenyl)amino)-7H-pyrrolo[2,3-d] pyrimidine-5-carbonitrile], the GI50 in experiment [1] was below 100 nM. This molecule also came in with an IC50 in experiment [3] of 50 to 200 nM.
